Test results reported in US20250283073A1 (ORNA THERAPEUTICS, INC., priority 2021, published 2025).

Experiments:
primary human T cells = assay: FLuc circRNA LNP transfection of activated primary human T cells with or without ApoE3; assay type: cell-based; conditions: 200 ng RNA/well, 24 hours, 4 donors
Method: Primary human T cells from independent donors were stimulated with aCD3/aCD28 and allowed to proliferate for 6 days in the presence of human serum and IL-2. Then, 100,000 cells were plated in a 96 well plate and LNPs containing circRNA coding for Firefly Luciferase (FLuc) were added to the cells at 200 ng RNA/well with or without Apolipoprotein E3 (ApoE3). After 24-hour incubation, luminescence was quantified using the Bright-Glo Luciferase Assay System (Promega) according to manufacturer's instructions and background luminescence from cells not treated with LNPs was subtracted. […] (See Example 70 for LNP formulation procesure, e.g., for 10a-27 (5.7A), 10a-26 (5.7A), 10a-27 (4.5D), and 10a-26 (4.5D) LNPs.)

splenic immune cells = assay: Cre circRNA LNP transfection of splenic immune cells in Ai9 Cre reporter mice (tdTomato); assay type: in vivo; conditions: 0.5 mg/kg Cre RNA LNPs i.v., 48 hours
Method: Circular RNAs encoding Cre recombinase (Cre) are encapsulated into lipid nanoparticles as previously described. Female, 6-8 week old B6.Cg-Gt(ROSA)26Sortm9(CAG-tdTomato)Hze/J (Ai9) mice were dosed with lipid nanoparticles at 0.5 mg/kg RNA intravenously. Fluorescent tdTomato protein was transcribed and translated in Ai9 mice upon Cre recombination, meaning circular RNAs have been delivered to and translated in tdTomato+ cells. After 48 hr, mice were euthanized and the spleens were harvested, processed into a single cell suspension, and stained with various fluorophore-conjugated antibodies for immunophenotyping via flow cytometry.
Ai9 mice (B6.Cg-Gt(ROSA)26Sortm9(CAG-tdTomato)Hze/J, female, 6-8 weeks, n=3 per group) were injected i.v. with 0.5 mg/kg Cre circRNA LNPs or PBS. Ai9 mice transcribe and translate the fluorescent reporter tdTomato upon Cre recombination; meaning cells which are tdTomato+ have successfully been transfected with Cre circRNA. […] Flow cytometry was performed using an Attune Nxt Flow Cytometer (Thermo).

SMILES: CCCCCCCCC(CCCCCC)C(=O)OCCCCCCN(CCCCCCOC(=O)C(CCCCCC)CCCCCCCC)CCCn1ccnc1C (centres unmarked) [Lipid 10a-27, ((3-(2-methyl-1H-imidazol-1-yl)propyl)azanediyl)bis(hexane-6,1-diyl) bis(2-hexyldecanoate)]
- Firefly luminescence (primary human T cells): generally produced higher luminescence than those containing Lipid 10a-26
- tdTomato+ splenic immune cells (splenic immune cells): transfect significantly more splenic immune cells than those made with Lipid 10a-46
